These results are taken from US20160185717A1, “COMPOUNDS WITH ANTIBACTERIAL ACTIVITY” (FUNDACIÓN MEDINA. CENTRO DE EXCELENCIA EN INVESTIGACIÓN DE …, priority 2013, published 2016).

One may read the MIC as the least concentration at which growth counts as inhibited.

The structures appear in SMILES notation. ≈ marks a conversion by molar mass, not a printed value. A value given as a limit tells only on which side of the number the result lay.

For one assay, the system named is E. coli 219. The experiment in a line: Broth microdilution MIC. The note with it: E. coli 219, ΔAcrAB::Tn903kan. The class given is cell-based, Escherichia coli. How it is done:
(§1) Antibacterial activity of compounds MDN-0057, MDN-0058, MDN-0059 and MDN-0060 was evaluated using the broth microdilution methodology. This method is used to determine minimum inhibitory concentrations (MICs) which are defined as the lowest concentration of an antimicrobial compound that will inhibit the visible growth of a microorganism after overnight incubation.
(§2) In the microbroth dilution assay, microorganisms were selected by streaking bacteria culture from a cryovial into Mueller Hinton II (MHII) agar plate(s) and incubate overnight at 37° C. Thereafter, 3 to 5 characteristic fresh colonies were selected and suspended in 25 mL of MHII broth media for 2 hours shaking at 220 rpm. The 2 hour broth cultures were adjusted to an optical density of 0.111 at 660 nm and then diluted to 1:100 in order to obtain assay inoculums.
(§3) The four compounds evaluated were serially diluted in 100% DMSO with a dilution factor of 2 to provide 10 compound concentrations starting at 8 mg/mL.
(§4) For the assays, 90 μL/well of the appropriated diluted inoculum were mixed with 1.6 μL/well of each compound concentration and 8.4 μL/well of MHII broth media, resulting in an additional dilution of these compounds to yield concentrations in the assay wells from 128 μg/mL to 0.25 μg/mL. After that, the assay plates were read in a Tecan Ultraevolution spectrophotometer at 612 nm for T0 (zero time). Then, the plates were statically incubated at 37° C. for 20 hours. After incubation, they were shaken in a DPC Micromix-5 and read again for Tf (final time). Percentage of growth inhibition was calculated using the following normalization:
(§5) % Inhibition=[1-[(TfSample-T0Sample)−(TfBlank-T0blank)/(TfGrowth-T0Growth)−(TfBlank-T0blank)]×100. • Where, • T0 Sample=the absorbance of the strain growth in the presence of sample measured at zero time (before incubation). • Tf Sample=the absorbance of the strain growth in the presence of sample measured at final time (after incubation) • T0 Growth=the absorbance of the strain growth in the absence of sample measured at zero time (before incubation). • Tf Growth=the absorbance of the strain growth in the absence of sample measured at final time (after incubation). • T0 Blank=the absorbance of the broth medium (blank) measured at zero time (before incubation). • Tf Blank=the absorbance of the broth medium (blank) measured at final time (after incubation).
(In general: Dilution methods test growth across graded concentrations, often in twofold steps.)

The subject of a further assay is E. coli ATCC 25922. The experiment in a line: Broth microdilution MIC. In kind it is cell-based, Escherichia coli. The note with it: E. coli ATCC 25922, wild type. How it is done: as §1, §2, §3, §4, §5
A further assay deals with P. aeruginosa 839. Put plainly: Broth microdilution MIC. As to conditions: P. aeruginosa 839, ΔMexAB-OprM. The class given is cell-based, Pseudomonas aeruginosa. How it is done:
as §1, §2, §3, §4, §5

In another assay the test system is P. aeruginosa ATCC 27853. Put plainly: Broth microdilution MIC. The class given is cell-based, Pseudomonas aeruginosa. As to conditions: P. aeruginosa ATCC 27853, wild type. On the procedure:
as §1, §2, §3, §4, §5

For a further assay, the system named is S. aureus ATCC 29213. Put plainly: Broth microdilution MIC. The class given is cell-based, Staphylococcus aureus. On the procedure:
as §1, §2, §3, §4, §5

Assay [1] relates to DNA synthesis in E. coli acrAB::Tn903. The experiment in a line: Macromolecular labeling assay, DNA synthesis. The class given is cell-based, Escherichia coli. As to conditions: at up to 8-fold the MIC, [3H] thymidine. How it is done: (§6) The macromolecular synthesis assay, in which the inhibition of the intracellular building blocks of macromolecules are measured, provides guidance for understanding the broad MOA of compounds
(§7) The inhibitory effect on synthesis of macromolecules in the lipid, cell wall, DNA, RNA and protein synthesis pathways was determined in growing cells of E. coli acrAB::Tn903. Cells were grown at 35° C. overnight on Trypticase Soy agar, and this culture was used to inoculate 15 ml of Mueller Hinton broth II (MHB). The culture was grown to early exponential growth phase (OD600=0.2 to 0.3) while incubating in a shaker at 35° C. and 200 rpm.
Cells in early exponential phase were exposed to MDN-0057, and their incorporation of radioactive precursors in each pathway was determined. Rifampicin, Ciprofloxacin, Tetracycline, Imipenem and Irgasan were included as positive controls for inhibition of RNA, DNA, protein, cell wall and lipid synthesis, respectively. (FIG. 1)
DNA, RNA, and protein synthesis: When cells reached early exponential phase, 100 μL of culture was added to triplicate wells containing various concentrations of MDN-0057 or control antibiotics (2.5 μL) at 40× the final concentration in 100% DMSO or deionized water (dH2O). […] After washing five times with 200 μL per well of cold 5% TCA, the filters were allowed to dry, and then counted using a Packard Top Count microplate scintillation counter.

The subject of assay [2] is cell wall synthesis in E. coli acrAB::Tn903. Put plainly: Macromolecular labeling assay, cell wall synthesis. The class given is cell-based, Escherichia coli. How it is done: as §6, §7
Cells in early exponential phase were exposed to MDN-0057, and their incorporation of radioactive precursors in each pathway was determined. […]
Cell wall synthesis: Bacterial cells in early exponential growth phase were transferred to M9 minimal medium and added to 1.5 ml eppendorf tubes (100 μl/tube) containing various concentrations of MDN-0057 or control antibiotics (2.5 μl) at 40× the final concentration in 100% DMSO or dH2O as described above. […] After washing three times with 5 ml of 0.1% SDS, the filters were rinsed two times with 5 mL of dH2O, allowed to dry, and then counted using a Beckman LS3801 liquid scintillation counter.

In the case of `[C-]#[N+]C(=C)C(Cc1ccc(OC)cc1)([N+]#[C-])C1CC(O)CCC1OC(=O)CO` (stereo not drawn) [MDN-0057], the minimal inhibitory concentration (MIC) against E. coli 219 was 0.125 to 0.5 µg/mL; against E. coli ATCC 25922, 16 to 64 µg/mL; against P. aeruginosa 839 it was 1 to 2 µg/mL; with P. aeruginosa ATCC 27853 it was 2 to 8 µg/mL; in the assay with S. aureus ATCC 29213 (S. aureus ATCC 29213, wild type), more than 128 µg/mL. The “MIC against S. aureus (No activity)” value against S. aureus ATCC 29213 came out at 128 µg/mL (≈ 333 µM). Also, in assay [1], the “Inhibition of DNA synthesis” value is reported as “Little or no inhibition”. Moreover, the “Maximum inhibition of cell wall synthesis” value in assay [2] (at 2 to 8-fold the MIC, [14C] N-acetylglucosamine, apparent dose-response) is listed as “ca. 75%”. Further, in assay [2] (at 2× MIC, strain E. coli acrAB::Tn903), the “Inhibition of Macromolecular Synthesis (FIG. 1 legend)” value is on record as “signal for Cell Wall Biosynthesis”.
